Source: patent publication US20120295247A1, “PORCINE SEMINAL MATERIAL COMPOSITION FOR ARTIFICIAL INSEMINATION OF SOWS” (GENES DIFFUSION, priority 2009, published 2012)

Tested on: spermatozoa present in free semen
From the text: In order to obtain efficient fertilization, more than 50% of the spermatozoa have to be […] (i.e. having an individual displacement velocity of more than 20 micrometers per second).
Gedil® is a diluting agent consisting of a biological medium favorable to preservation of spermatozoa.

Q: How did the “motility of the spermatozoa” value (BaCl2 at 5 or 10% on free semen, after two days) turn out when `[Ba+2].[Cl-].[Cl-]` [BaCl2, barium chloride] was run?
A: significant reduction

Q: What about the “effect on essential properties (such as the motility) of porcine spermatozoa” value (products present in the capsules) of the same compound?
A: alter the essential properties

Q: What about the “toxicity (or stress) for spermatozoa” value (spermatozoa diluted in media other than Gedil, addition of BaCl2) of the same compound?
A: toxicity
